Activity calls are given as the source filed them. The rule behind the calls is not given here.
How the values were obtained:
Urotensin-2 receptor [1] = target: T1, Urotensin-2 receptor (Homo sapiens, UniProt Q9UKP6); experiment: Displacement of [Na125I]-synthetic URP from human UT receptor expressed in HEK293 cell membranes incubated for 2 hrs by gamma-counting
T1 sequence (Q9UKP6 whole entry): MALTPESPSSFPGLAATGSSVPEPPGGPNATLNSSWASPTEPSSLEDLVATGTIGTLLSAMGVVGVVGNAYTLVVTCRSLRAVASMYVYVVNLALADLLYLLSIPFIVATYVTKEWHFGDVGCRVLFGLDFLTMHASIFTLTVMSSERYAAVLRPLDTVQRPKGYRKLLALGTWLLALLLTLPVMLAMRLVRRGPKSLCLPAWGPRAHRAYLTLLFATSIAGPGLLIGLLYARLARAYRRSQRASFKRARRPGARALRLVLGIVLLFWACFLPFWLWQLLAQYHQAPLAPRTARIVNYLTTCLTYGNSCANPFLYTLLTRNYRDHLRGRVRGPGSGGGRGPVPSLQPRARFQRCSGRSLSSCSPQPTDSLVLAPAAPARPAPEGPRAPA

Urotensin-2 receptor [2] = target: T2, Urotensin-2 receptor (Rattus norvegicus, UniProt P49684); experiment: Agonist activity at UT receptor in Sprague-Dawley rat thoracic aortic ring assessed as induction of contraction; assay type: functional
T2 sequence (P49684 whole entry): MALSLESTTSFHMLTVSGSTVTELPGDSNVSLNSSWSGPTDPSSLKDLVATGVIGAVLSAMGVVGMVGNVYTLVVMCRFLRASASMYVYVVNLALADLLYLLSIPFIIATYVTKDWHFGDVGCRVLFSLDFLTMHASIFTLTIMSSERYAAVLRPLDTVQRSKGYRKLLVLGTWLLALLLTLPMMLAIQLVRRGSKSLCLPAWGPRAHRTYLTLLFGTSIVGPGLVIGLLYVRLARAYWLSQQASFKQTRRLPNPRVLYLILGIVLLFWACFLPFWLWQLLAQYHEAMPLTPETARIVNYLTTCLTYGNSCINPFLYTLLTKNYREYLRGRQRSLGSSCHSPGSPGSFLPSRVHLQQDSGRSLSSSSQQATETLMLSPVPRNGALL

[3] = target: T3, Urotensin-2 receptor (Rattus norvegicus) (UniProt P49684); experiment: Agonist activity at UT receptor in Sprague-Dawley rat thoracic aortic ring assessed as induction of contraction relative to KCl-induced contraction; assay type: functional
T3 sequence (whole entry): T2 sequence (P49684 whole entry)

[4] = target: T3, Urotensin-2 receptor (Rattus norvegicus); experiment: (§1) Antagonist activity at UT receptor in Sprague-Dawley rat thoracic aortic ring assessed as reduction in urotensin-2-induced contraction by measuring pEC50 for human urotensin-2-induced contraction at 1 uM pre-incubated for 30 mins before urotensin-2 stimulation (reference value: 8.59 +/- 0.12); assay type: functional
[5] = target: T3, Urotensin-2 receptor (Rattus norvegicus); experiment: as §1, with “Emax” for “pEC50”, “stimulation relative to KCl-induced contraction” for “stimulation”, “101” for “8.59”, “4%)” for “0.12)”; assay type: functional
[6] = target: T3, Urotensin-2 receptor (Rattus norvegicus); experiment: (§2) Antagonist activity at UT receptor in Sprague-Dawley rat thoracic aortic ring assessed as reduction in URP-induced contraction by measuring pEC50 for […] at 1 uM pre-incubated for 30 mins before urotensin-2 stimulation (reference value: 8.16 +/- 0.08); assay type: functional
[7] = target: T3, Urotensin-2 receptor (Rattus norvegicus); experiment: as §2, with “Emax” for “pEC50”, “[…] relative to KCl-induced contraction” for “stimulation”, “107” for “8.16”, “3%)” for “0.08)”; assay type: functional
[8] = target: T3, Urotensin-2 receptor (Rattus norvegicus); experiment: Antagonist activity at UT receptor in Sprague-Dawley rat thoracic aortic ring assessed as reduction in urotensin-2-induced contraction by measuring Emax for human urotensin-2-induced contraction at 1 x 10^-8M uM pre-incubated for 30 mins before urotensin-2 stimulation (reference value: 101 +/- 4%); assay type: functional
[9] = target: T3, Urotensin-2 receptor (Rattus norvegicus); experiment: Antagonist activity at UT receptor in Sprague-Dawley rat thoracic aortic ring assessed as reduction in urotensin-2-induced contraction by measuring Emax for human urotensin-2-induced contraction at 1 x 10^-7M uM pre-incubated for 30 mins before urotensin-2 stimulation (reference value: 101 +/- 4%); assay type: functional
[10] = target: T3, Urotensin-2 receptor (Rattus norvegicus); experiment: (§3) Antagonist activity at UT receptor in Sprague-Dawley rat thoracic aortic ring assessed as reduction in URP-induced contraction by measuring Emax for human urotensin-2-induced contraction at 3 x 10^-10M pre-incubated for 30 mins before urotensin-2 stimulation relative to KCl-induced contraction (reference value: 107 +/- 3%); assay type: functional
[11] = target: T3, Urotensin-2 receptor (Rattus norvegicus); experiment: as §3, with “10^-9M” for “10^-10M”; assay type: functional
[12] = target: T3, Urotensin-2 receptor (Rattus norvegicus); experiment: as §3, with “at 1” for “at 3”, “x 10^-8M” for “x 10^-10M”; assay type: functional
[13] = target: T3, Urotensin-2 receptor (Rattus norvegicus); experiment: as §3, with “at 1” for “at 3”, “x 10^-7M” for “x 10^-10M”; assay type: functional
Urotensin-2 receptor [14] = target: T1, Urotensin-2 receptor; experiment: Agonist activity at human UT receptor expressed in HEK293 cells co-expressing Gq-polycistronic BRET biosensor assessed as induction of Gq activation measured for 5 mins by luminescence detection based BRET assay; assay type: functional, cell-based
[15] = target: T4, Urotensin-2 receptor (Homo sapiens) (UniProt Q9UKP6); experiment: Agonist activity at human UT receptor expressed in HEK293 cells co-expressing Gq-polycistronic BRET biosensor assessed as induction of Gq activation measured for 5 mins by luminescence detection based BRET assay relative to 10 uM URP; assay type: functional, cell-based
T4 sequence (whole entry): T1 sequence (Q9UKP6 whole entry)

Urotensin-2 receptor [16] = target: T1, Urotensin-2 receptor; experiment: Agonist activity at human UT receptor expressed in HEK293 cells co-expressing G12-polycistronic BRET biosensor assessed as induction of G12 activation measured for 5 mins by luminescence detection based BRET assay; assay type: functional, cell-based
[17] = target: T4, Urotensin-2 receptor (Homo sapiens); experiment: Agonist activity at human UT receptor expressed in HEK293 cells co-expressing G12-polycistronic BRET biosensor assessed as induction of G12 activation measured for 5 mins by luminescence detection based BRET assay relative to 10 uM URP; assay type: functional, cell-based
Urotensin-2 receptor [18] = target: T1, Urotensin-2 receptor; experiment: Agonist activity at human UT receptor expressed in HEK293 cells co-expressing beta-arrestin1-polycistronic BRET biosensor assessed as induction of beta-arrestin1 recruitment measured for 5 mins by luminescence detection based BRET assay; assay type: functional, cell-based
[19] = target: T4, Urotensin-2 receptor (Homo sapiens); experiment: Agonist activity at human UT receptor expressed in HEK293 cells co-expressing beta-arrestin1-polycistronic BRET biosensor assessed as induction of beta-arrestin1 recruitment measured for 5 mins by luminescence detection based BRET assay relative to 10 uM URP; assay type: functional, cell-based
[20] = target: T4, Urotensin-2 receptor (Homo sapiens); experiment: (§4) Selectivity index, change in deltalog(Tau/KA) for agonist activity at human UT receptor expressed in HEK293 cells co-expressing G12-polycistronic BRET biosensor assessed as induction of G12 activation by luminescence detection based BRET assay to deltalog(Tau/KA) for agonist activity at human UT receptor expressed in HEK293 cells co-expressing Gq-polycistronic BRET biosensor assessed as induction of Gq activation by luminescence detection based BRET assay; assay type: functional, cell-based
[21] = target: T4, Urotensin-2 receptor (Homo sapiens); experiment: as §4, with “Bias factor, ratio of” for “Selectivity index, change in”; assay type: functional, cell-based
[22] = target: T4, Urotensin-2 receptor (Homo sapiens); experiment: (§5) Bias factor, ratio of deltalog(Tau/KA) for agonist activity at human UT receptor expressed in HEK293 cells co-expressing Gq-polycistronic BRET biosensor assessed as induction of Gq activation by luminescence detection based BRET assay to deltalog(Tau/KA) for agonist activity at human UT receptor expressed in HEK293 cells co-expressing G12-polycistronic BRET biosensor assessed as induction of G12 activation by luminescence detection based BRET assay; assay type: functional, cell-based
[23] = target: T4, Urotensin-2 receptor (Homo sapiens); experiment: Selectivity index, change in deltalog(Tau/KA) for agonist activity at human UT receptor expressed in HEK293 cells co-expressing Gq-polycistronic BRET biosensor assessed as induction of Gq activation by luminescence detection based BRET assay to deltalog(Tau/KA) for agonist activity at human UT receptor expressed in HEK293 cells co-expressing beta-arrestin1-polycistronic BRET biosensor assessed as induction of beta-arrestin1 recruitment by luminescence detection based BRET assay; assay type: functional, cell-based
[24] = target: T4, Urotensin-2 receptor (Homo sapiens); experiment: as §5, with “beta-arrestin1-polycistronic” for “G12-polycistronic”, “beta-arrestin1 recruitment” for “G12 activation”; assay type: functional, cell-based
[25] = target: T4, Urotensin-2 receptor (Homo sapiens); experiment: (§6) Bias factor, ratio of deltalog(Tau/KA) for agonist activity at human UT receptor expressed in HEK293 cells co-expressing beta-arrestin1-polycistronic BRET biosensor assessed as induction of beta-arrestin1 recruitment by luminescence detection based BRET assay to deltalog(Tau/KA) for agonist activity at human UT receptor expressed in HEK293 cells co-expressing Gq-polycistronic BRET biosensor assessed as induction of Gq activation by luminescence detection based BRET assay; assay type: functional, cell-based
[26] = target: T4, Urotensin-2 receptor (Homo sapiens); experiment: Selectivity index, change in deltalog(Tau/KA) for agonist activity at human UT receptor expressed in HEK293 cells co-expressing beta-arrestin1-polycistronic BRET biosensor assessed as induction of beta-arrestin1 recruitment by luminescence detection based BRET assay to deltalog(Tau/KA) for agonist activity at human UT receptor expressed in HEK293 cells co-expressing G12-polycistronic BRET biosensor assessed as induction of G12 activation by luminescence detection based BRET assay to; assay type: functional, cell-based
[27] = target: T4, Urotensin-2 receptor (Homo sapiens); experiment: as §6, with “G12-polycistronic” for “Gq-polycistronic”, “G12” for “Gq”; assay type: functional, cell-based
[28] = target: T4, Urotensin-2 receptor (Homo sapiens); experiment: Bias factor, ratio of deltalog(Tau/KA) for agonist activity at human UT receptor expressed in HEK293 cells co-expressing G12-polycistronic BRET biosensor assessed as induction of G12 activation by luminescence detection based BRET assay to deltalog(Tau/KA) for agonist activity at human UT receptor expressed in HEK293 cells co-expressing beta-arrestin1-polycistronic BRET biosensor assessed as induction of beta-arrestin1 recruitment by luminescence detection based BRET assay; assay type: functional, cell-based
[29] = target: T3, Urotensin-2 receptor (Rattus norvegicus); experiment: Agonist activity at UT receptor in Sprague-Dawley rat thoracic aortic ring assessed as induction of contraction at 10^-5M relative to KCl-induced contraction; assay type: functional

IC50 (Urotensin-2 receptor [1]) | EC50 (Urotensin-2 receptor [2]) | Emax [3] | pEC50 [4] | Emax [5] | pEC50 [6] | Emax [7] | EC50 (Urotensin-2 receptor [14]) | Emax [15] | Emax [17] | Emax [19] | deltalog(Tau/KA) [20] | fold change (FC) [21] | fold change (FC) [22] | selectivity index, deltadeltalog(Tau/KA) [23] | fold change (FC) [24] | fold change (FC) [25] | deltadeltalog(Tau/KA) (beta-arrestin1 selectivity index) [26] | fold change (FC) [27] | fold change (FC) [28] | Compound | further results
5.37 nM | 28.8 nM | 25% | Active | 23% | Active | 31% | 15.1 nM | 91% | 80% | 76% | 0.15 | 1.4 | 0.7 | 0.45 | 2.8 | 0.4 | -0.6 | 0.3 | 3.9 | CC(C)[C@H](NC(=O)[C@@H]1CSSC[C@H](NC(=O)[C@H](C)N)C(=O)N[C@@H](Cc2ccc(-c3ccccc3)cc2)C(=O)N[C@@H](Cc2c[nH]c3ccccc23)C(=O)N[C@@H](CCCCN)C(=O)N[C@@H](Cc2ccc(O)cc2)C(=O)N1)C(=O)O | Emax [8]: 78%; Emax [9]: 58%; Emax [10]: 104%; Emax [11]: 94%; Emax [12]: 75%; Emax [13]: 60%; EC50 (Urotensin-2 receptor [16]): 120 nM; EC50 (Urotensin-2 receptor [18]): 603 nM
 |  |  |  | 95% |  | 107% |  | 91% | 91% | 97% | 0.64 | 4.3 | 0.2 | -0.73 | 0.2 | 5.3 | 0.09 | 1.2 | 0.8 | CC(C)[C@H](NC(=O)[C@@H]1CSSC[C@H](NC(=O)[C@H](N)CC(=O)O)C(=O)N[C@@H](Cc2ccc(I)cc2)C(=O)N[C@@H](Cc2c[nH]c3ccccc23)C(=O)N[C@@H](CCCCN)C(=O)N[C@@H](Cc2ccc(O)cc2)C(=O)N1)C(=O)O | Emax [29]: 49%
26.9 nM | 32.4 nM | 28% | Active | 15% | Active | 25% | 27.5 nM | 102% | 78% | 94% | 0.24 | 1.8 | 0.6 | -0.03 | 0.9 | 1.1 | -0.22 | 0.6 | 1.6 | CC(C)[C@H](NC(=O)[C@@H]1CSSC[C@H](NC(=O)[C@H](C)N)C(=O)N[C@@H](Cc2ccc(C#Cc3ccccc3)cc2)C(=O)N[C@@H](Cc2c[nH]c3ccccc23)C(=O)N[C@@H](CCCCN)C(=O)N[C@@H](Cc2ccc(O)cc2)C(=O)N1)C(=O)O | EC50 (Urotensin-2 receptor [16]): 148 nM; EC50 (Urotensin-2 receptor [18]): 759 nM
